# Results published in patent US10618901B2 (GlaxoSmithKline Intellectual Property Development Limited, priority 2014, dated 2020).
# Molecular target: T1, LRRK2 Ser935 phosphorylation in SH-SY5Y cells over-expressing recombinant full length LRRK2 (Homo sapiens, UniProt Q5S007)
# T1 construct: A BacMam virus expressing full length recombinant LRRK2 was purchased from Invitrogen; host or cells: SH-SY5Y (BacMam transduction)
# Assay: Recombinant cellular LRRK2 AlphaScreen assay
# Assay type: cell-based
# Conditions: LRRK2 Ser935 phosphorylation, 60 minutes, read-out: recombinant cellcular LRRK2 alphaScreen assay (pIC50) (converted)
# From the text: Recombinant Cellular LRRK2 AlphaScreen Assay
# To determine the activity of compounds against LRRK2 kinase activity in cells, the observed LRRK2 kinase-dependent modulation of LRRK2 Ser 935 phosphorylation (Dzamko et al., 2010, Biochem. J. 430: 405-413) was utilized to develop a quantitative 384 well plate-based immunoassay of LRRK2 Ser935 phosphorylation in the human neuroblastoma cell line SH-SY5Y, engineered to over-express recombinant full length LRRK2 protein.
# A BacMam virus expressing full length recombinant LRRK2 was purchased from Invitrogen and amplified by inoculation of SF-9 cells at MOI 0.3 for 4-5 days in Sf-900 III SFM medium supplemented with 3% fetal bovine serum. Infected cell cultures were then centrifuged at 2000 g for 20 minutes, viral supernatant titer determined by anti-gp64 plaque assay and stored at 4° C.
# Affinity-purified anti-phospho LRRK2 Ser935 sheep polyclonal antibody (Dzamko et al., 2010, Biochem. J. 430: 405-413) was biotinylated by standard methods (PerkinElmer). Anti-LRRK2 rabbit polyclonal antibody was purchased from Novus Biologicals. AlphaScreen Protein A IgG Kit (including acceptor and donor beads) was purchased from Perkin Elmer.
# SH-SY5Y cells were grown in DMEM/F12 medium with 10% dialysed fetal bovine serum and harvested by treatment with 0.5% trypsin-EDTA for 5 minutes at 37° C. followed by centrifugation at 1000 rpm for 4 minutes. The cell pellet was resuspended in Opti-MEM reduced serum media (Invitrogen) at 200,000 cells/ml and mixed with the BacMam LRRK2 virus at M01=50. 50 μl cell solutions were then dispensed to each well of a 384-well plate and incubated at 37° C., 5% CO2 for 24 hours.
# Serial dilutions of test compounds were prepared in Opti-MEM reduced serum media (Invitrogen) and 5.6 ul transferred from compound plate to cell assay plate to achieve a top final assay concentration of 10 uM. DMSO was used in certain wells as controls. Cells were incubated at 37° C., 5% CO2 for 60 minutes. The medium was then removed and cells lysed by addition of 20 ul cell lysis buffer (Cell Signaling Technology) and incubation at 4° C. for 20 minutes. 10 ul of antibody/acceptor bead mix [(1/1000 biotinylated-pS935 LRRK2 antibody, 1/1000 total-LRRK2 antibody, 1/100 Acceptor beads in AlphaScreen detection buffer (25 mM Hepes (pH 7.4), 0.5% Triton X-100, 1 mg/ml Dextran 500 and 0.1% BSA)] was then added to each well and plates incubated for 2 hours at ambient temperature in the dark. 10 μl of donor beads solution (1/33.3 donor beads in AlphaScreen detection buffer) was then added to each well. Following incubation for a further 2 hours at ambient temperature in the dark, plates were read on an EnVision™ plate reader at emission 520-620 nm with excitation 680 nm. Dose response curve data was based on sigmoidal dose-response model.
# T1 sequence (Q5S007 whole entry): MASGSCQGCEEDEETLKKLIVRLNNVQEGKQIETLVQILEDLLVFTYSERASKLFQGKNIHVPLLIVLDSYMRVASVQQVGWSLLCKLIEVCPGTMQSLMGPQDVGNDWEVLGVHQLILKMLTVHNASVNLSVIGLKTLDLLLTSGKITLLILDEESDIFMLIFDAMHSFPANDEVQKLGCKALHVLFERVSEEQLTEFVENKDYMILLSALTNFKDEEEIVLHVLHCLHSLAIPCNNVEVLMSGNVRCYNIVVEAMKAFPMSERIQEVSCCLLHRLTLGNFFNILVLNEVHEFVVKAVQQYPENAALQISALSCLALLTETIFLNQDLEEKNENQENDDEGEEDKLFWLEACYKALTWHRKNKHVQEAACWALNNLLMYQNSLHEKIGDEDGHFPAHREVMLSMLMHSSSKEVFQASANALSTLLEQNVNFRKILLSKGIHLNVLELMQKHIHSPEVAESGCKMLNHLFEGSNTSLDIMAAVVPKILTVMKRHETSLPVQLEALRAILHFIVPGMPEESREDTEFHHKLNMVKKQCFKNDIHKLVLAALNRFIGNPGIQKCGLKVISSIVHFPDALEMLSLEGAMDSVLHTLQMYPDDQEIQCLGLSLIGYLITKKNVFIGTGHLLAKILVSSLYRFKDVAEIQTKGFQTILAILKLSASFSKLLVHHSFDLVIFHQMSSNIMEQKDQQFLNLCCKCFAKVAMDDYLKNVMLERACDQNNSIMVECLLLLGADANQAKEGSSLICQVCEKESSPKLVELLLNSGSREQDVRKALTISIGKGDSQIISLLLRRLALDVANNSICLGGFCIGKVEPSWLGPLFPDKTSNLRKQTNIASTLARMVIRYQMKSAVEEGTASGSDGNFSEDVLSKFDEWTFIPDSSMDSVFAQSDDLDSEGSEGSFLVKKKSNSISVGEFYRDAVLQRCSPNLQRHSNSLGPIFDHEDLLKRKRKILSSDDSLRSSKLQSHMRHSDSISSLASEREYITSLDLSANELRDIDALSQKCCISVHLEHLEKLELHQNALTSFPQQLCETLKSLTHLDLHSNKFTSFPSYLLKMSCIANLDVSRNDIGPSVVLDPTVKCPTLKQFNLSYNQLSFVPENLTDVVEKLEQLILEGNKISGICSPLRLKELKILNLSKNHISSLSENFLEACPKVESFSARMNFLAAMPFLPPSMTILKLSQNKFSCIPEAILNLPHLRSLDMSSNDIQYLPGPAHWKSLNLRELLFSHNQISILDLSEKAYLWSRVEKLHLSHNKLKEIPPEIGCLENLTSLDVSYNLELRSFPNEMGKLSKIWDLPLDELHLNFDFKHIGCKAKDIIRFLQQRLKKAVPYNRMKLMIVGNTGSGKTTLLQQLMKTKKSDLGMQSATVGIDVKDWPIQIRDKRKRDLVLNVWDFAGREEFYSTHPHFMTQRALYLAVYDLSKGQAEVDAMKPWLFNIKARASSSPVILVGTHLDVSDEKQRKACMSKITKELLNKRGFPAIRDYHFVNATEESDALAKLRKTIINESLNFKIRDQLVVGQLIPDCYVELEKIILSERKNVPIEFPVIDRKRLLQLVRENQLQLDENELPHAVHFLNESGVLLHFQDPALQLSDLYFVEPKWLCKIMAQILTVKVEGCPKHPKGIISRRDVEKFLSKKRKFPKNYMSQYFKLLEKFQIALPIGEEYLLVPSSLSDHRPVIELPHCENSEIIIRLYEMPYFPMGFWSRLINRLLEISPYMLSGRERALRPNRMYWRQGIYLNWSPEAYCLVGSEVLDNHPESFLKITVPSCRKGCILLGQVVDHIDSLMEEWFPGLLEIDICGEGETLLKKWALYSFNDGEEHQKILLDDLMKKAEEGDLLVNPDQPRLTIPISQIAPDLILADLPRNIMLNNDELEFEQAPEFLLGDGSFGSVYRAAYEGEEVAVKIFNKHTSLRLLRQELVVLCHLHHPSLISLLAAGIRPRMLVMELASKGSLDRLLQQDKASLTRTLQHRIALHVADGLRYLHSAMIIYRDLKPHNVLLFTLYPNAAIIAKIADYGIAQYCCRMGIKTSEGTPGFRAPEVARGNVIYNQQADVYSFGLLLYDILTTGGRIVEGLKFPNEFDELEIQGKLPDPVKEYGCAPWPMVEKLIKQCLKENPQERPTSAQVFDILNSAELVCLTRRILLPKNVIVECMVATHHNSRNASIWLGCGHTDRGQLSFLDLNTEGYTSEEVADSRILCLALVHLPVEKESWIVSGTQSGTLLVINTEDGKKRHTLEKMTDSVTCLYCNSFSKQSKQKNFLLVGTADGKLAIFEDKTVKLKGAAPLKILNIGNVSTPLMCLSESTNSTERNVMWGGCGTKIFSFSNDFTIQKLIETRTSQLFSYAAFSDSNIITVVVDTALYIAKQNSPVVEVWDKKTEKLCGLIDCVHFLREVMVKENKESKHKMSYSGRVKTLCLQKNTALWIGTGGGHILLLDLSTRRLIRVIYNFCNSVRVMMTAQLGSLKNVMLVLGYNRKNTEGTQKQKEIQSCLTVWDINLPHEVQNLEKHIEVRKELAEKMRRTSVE
row,SMILES,IC50
1,"CCOc1nc(Nc2cnn(C3CNCCC3(F)F)c2C)nc2[nH]ccc12 (single isomer, unassigned) [Example E117, N-(1-(4,4-difluoropiperidin-3-yl)-5-methyl-1H-pyrazol-4-yl)-4-ethoxy-7H-pyrrolo[2,3-d]pyrimidin-2-amine]",2.51 nM

# Same assay, conditions: read-out: pIC50 in the recombinant cellular LRRK2 alphaScreen assay (converted)
row,SMILES,IC50
1,"CCOc1nc(Nc2cnn(C3CCCC3O)c2Cl)nc2[nH]ccc12 (racemic) [Example E36, (±)-2-(5-chloro-4-((4-ethoxy-7H-pyrrolo-[2,3-d]-pyrimidin-2-yl)amino)-1H-pyrazol-1-yl)cyclopentanol]",≤ 100 nM
2,"CCOc1nc(Nc2cnn(C3CCCC3O)c2C)nc2[nH]ccc12 (racemic) [Example E39, (±)-2-(4-((4-ethoxy-7H-pyrrolo[2,3-d]pyrimidin-2-yl)amino)-5-methyl-1H-pyrazol-1-yl)cyclopentanol]",≤ 100 nM
3,"CCOc1nc(Nc2cnn(C3CCC(O)C3)c2Cl)nc2[nH]ccc12 (racemic) [Example E101, (±)-trans-3-(5-chloro-4-((4-ethoxy-7H-pyrrolo[2,3-d]pyrimidin-2-yl)amino)-1H-pyrazol-1-yl) cyclopentanol]",≤ 100 nM
4,"CCOc1nc(Nc2cnn(C3CN(C4COC4)CCO3)c2Cl)nc2[nH]ccc12 (racemic) [Example E140, (±)-N-(5-chloro-1-(4-(oxetan-3-yl)morpholin-2-yl)-1H-pyrazol-4-yl)-4-ethoxy-7H-pyrrolo [2,3-d]pyrimidin-2-amine]",≤ 100 nM
5,"CCOc1nc(Nc2cnn(C3CC(N4CCOCC4)CCC3(F)F)c2Cl)nc2[nH]ccc12 (racemic) [Example E145, (±)-trans-N-(5-chloro-1-(2,2-difluoro-5-morpholinocyclohexyl)-1H-pyrazol-4-yl)-4-ethoxy-7H-pyrrolo[2,3-d]pyrimidin-2-amine]",≤ 100 nM
6,"CCOc1nc(Nc2cnn(C3CCOC3)c2C)nc2[nH]ccc12 (single isomer, unassigned) [Example E16, 4-ethoxy-N-(5-methyl-1-(tetrahydrofuran-3-yl)-1H-pyrazol-4-yl)-7H-pyrrolo-[2,3-d]-pyrimidin-2-amine]",≤ 100 nM
7,"CCOc1nc(Nc2cnn(C3CCCOC3)c2C)nc2[nH]ccc12 (single isomer, unassigned) [Example E30, 4-ethoxy-N-(5-methyl-1-(tetrahydro-2H-pyran-3-yl)-1H-pyrazol-4-yl)-7H-pyrrolo-[2,3-d]pyrimidin-2-amine]",≤ 100 nM
8,"CCOc1nc(Nc2cnn([C@@H]3CCO[C@H](C)C3)c2C)nc2[nH]ccc12 (single isomer, unassigned) [Example E42]",≤ 100 nM
9,"CCOc1nc(Nc2cnn(C3CN(C)CC3F)c2C)nc2[nH]ccc12 (single isomer, unassigned) [Example E59, 4-ethoxy-N-(1-(4-fluoro-1-methylpyrrolidin-3-yl)-5-methyl-1H-pyrazol-4-yl)-7H-pyrrolo-[2,3-d]pyrimidin-2-amine]",≤ 100 nM
10,"CCOc1nc(Nc2cnn(C3CCCC3(C)O)c2C)nc2[nH]ccc12 (single isomer, unassigned) [Example E77, trans-2-(4-((4-ethoxy-7H-pyrrolo-[2,3-d]pyrimidin-2-yl)amino)-5-methyl-1H-pyrazol-1-yl)-1-methylcyclopentanol]",≤ 100 nM
11,"CCOc1nc(Nc2cnn(CC(C)N3CCOCC3)c2C)nc2[nH]ccc12 (single isomer, unassigned) [Example E92]",≤ 100 nM
12,"CCOc1nc(Nc2cnn(C3CCN(C4COC4)CC3F)c2C)nc2[nH]ccc12 (single isomer, unassigned) [Example E102, cis-4-ethoxy-N-(1-(3-fluoro-1-(oxetan-3-yl)piperidin-4-yl)-5-methyl-1H-pyrazol-4-yl)-7H-pyrrolo[2,3-d]pyrimidin-2-amine]",≤ 100 nM
13,"CCOc1nc(Nc2cnn(C3CCN(C4COC4)CC3F)c2Cl)nc2[nH]ccc12 (single isomer, unassigned) [Example E106, cis-N-(5-chloro-1-(3-fluoro-1-(oxetan-3-yl)piperidin-4-yl)-1H-pyrazol-4-yl)-4-ethoxy-7H-pyrrolo[2,3-d]pyrimidin-2-amine]",≤ 100 nM
14,"CCOc1nc(Nc2cnn(C3CCC(N4CCOCC4)C3)c2C)nc2[nH]ccc12 (single isomer, unassigned) [Example E108, (trans)-4-ethoxy-N-(5-methyl-1-(3-morpholinocyclopentyl)-1H-pyrazol-4-yl)-7H-pyrrolo[2,3-d]pyrimidin-2-amine]",≤ 100 nM
15,"CCOc1nc(Nc2cnn(C3CCC(N4CCOCC4)C3)c2Cl)nc2[nH]ccc12 (single isomer, unassigned) [Example E110, (trans)-N-(5-chloro-1-(3-morpholinocyclopentyl)-1H-pyrazol-4-yl)-4-ethoxy-7H-pyrrolo [2,3-d]pyrimidin-2-amine]",≤ 100 nM
16,"CCOc1nc(Nc2cnn(C3CNCCC3(F)F)c2C)nc2[nH]ccc12 (single isomer, unassigned) [Example E117, N-(1-(4,4-difluoropiperidin-3-yl)-5-methyl-1H-pyrazol-4-yl)-4-ethoxy-7H-pyrrolo[2,3-d]pyrimidin-2-amine]",≤ 100 nM
17,"CCOc1nc(Nc2cnn(C3CN(C4COC4)CCC3(F)F)c2C)nc2[nH]ccc12 (single isomer, unassigned) [Example E119, N-(1-(4,4-difluoro-1-(oxetan-3-yl)piperidin-3-yl)-5-methyl-1H-pyrazol-4-yl)-4-ethoxy-7H-pyrrolo[2,3-d]pyrimidin-2-amine]",≤ 100 nM
18,"CCOc1nc(Nc2cnn(C3CN(C4COC4)CCC3(F)F)c2Cl)nc2[nH]ccc12 (single isomer, unassigned) [Example E123, N-(5-chloro-1-(4,4-difluoro-1-(oxetan-3-yl)piperidin-3-yl)-1H-pyrazol-4-yl)-4-ethoxy-7H-pyrrolo[2,3-d]pyrimidin-2-amine]",≤ 100 nM
19,"CCOc1nc(Nc2cnn(C3CNCCC3(F)F)c2Cl)nc2[nH]ccc12 (single isomer, unassigned) [Example E125, N-(5-chloro-1-(4,4-difluoropiperidin-3-yl)-1H-pyrazol-4-yl)-4-ethoxy-7H-pyrrolo [2,3-d] pyrimidin-2-amine]",≤ 100 nM
20,"CCOc1nc(Nc2cnn(C3CCOCC3F)c2C)nc2[nH]ccc12 (single isomer, unassigned) [Example E128, (cis)-4-ethoxy-N-(1-(3-fluorotetrahydro-2H-pyran-4-yl)-5-methyl-1H-pyrazol-4-yl)-7H-pyrrolo[2,3-d]pyrimidin-2-amine]",≤ 100 nM
21,"CCOc1nc(Nc2cnn(C3CCN(C4COC4)CC3F)c2CC)nc2[nH]ccc12 (single isomer, unassigned) [Example E130, (trans)-4-ethoxy-N-(5-ethyl-1-(3-fluoro-1-(oxetan-3-yl)piperidin-4-yl)-1H-pyrazol-4-yl)-7H-pyrrolo[2,3-d]pyrimidin-2-amine]",≤ 100 nM
22,"CCOc1nc(Nc2cnn(C3CCN(C4COC4)CC3(F)F)c2C)nc2[nH]ccc12 (single isomer, unassigned) [Example E131, N-(1-(3,3-difluoro-1-(oxetan-3-yl)piperidin-4-yl)-5-methyl-1H-pyrazol-4-yl)-4-ethoxy-7H-pyrrolo[2,3-d]pyrimidin-2-amine]",≤ 100 nM
23,"CCOc1nc(Nc2cnn(C3CCN(C4COC4)CC3(F)F)c2Cl)nc2[nH]ccc12 (single isomer, unassigned) [Example E133, N-(5-chloro-1-(3,3-difluoro-1-(oxetan-3-yl)piperidin-4-yl)-1H-pyrazol-4-yl)-4-ethoxy-7H-pyrrolo[2,3-d]pyrimidin-2-amine]",≤ 100 nM
24,"CCOc1nc(Nc2cnn(C3CCN(C4COC4)CC3(C)F)c2C)nc2[nH]ccc12 (single isomer, unassigned) [Example E138, (4-ethoxy-7H-pyrrolo[2,3-d]pyrimidin-2-yl)-[1-(3-fluoro-3-methyl-1-oxetan-3-yl-piperidin-4-yl)-5-methyl-1H-pyrazol-4-yl]-amine]",≤ 100 nM
25,"CCOc1nc(Nc2cnn(C3CNCCO3)c2Cl)nc2[nH]ccc12 (single isomer, unassigned) [Example E143, N-(5-chloro-1-(morpholin-2-yl)-1H-pyrazol-4-yl)-4-ethoxy-7H-pyrrolo[2,3-d]pyrimidin-2-amine]",≤ 100 nM
